Data on 7 substances can be found in patent US20260174875A1 (Novo Nordisk A/S, priority 2023, published 2026).

A word on the EC50: it is the midpoint of the concentration-response curve.

In data set [1] the target is T1, human amylin receptor (hAMYR3) (Homo sapiens, UniProt O60896+P30988).
T1 construct: host or cells: BHK cells (Hollex-1 line expressing hCTR(a) and CRE-Luc), further transfected with human RAMP3
Put plainly: Amylin receptor assay, method A (CRE-luciferase reporter, BHK cells). Format: cell-based. Background: Reporter assays use an easily measured gene product as a stand-in for the process of interest.

For data set [2], the target named is T2, human GIP receptor (hGIPR) (Homo sapiens, UniProt P48546).
T2 construct: expressed in transfected cells
T2 sequence (P48546 22-466): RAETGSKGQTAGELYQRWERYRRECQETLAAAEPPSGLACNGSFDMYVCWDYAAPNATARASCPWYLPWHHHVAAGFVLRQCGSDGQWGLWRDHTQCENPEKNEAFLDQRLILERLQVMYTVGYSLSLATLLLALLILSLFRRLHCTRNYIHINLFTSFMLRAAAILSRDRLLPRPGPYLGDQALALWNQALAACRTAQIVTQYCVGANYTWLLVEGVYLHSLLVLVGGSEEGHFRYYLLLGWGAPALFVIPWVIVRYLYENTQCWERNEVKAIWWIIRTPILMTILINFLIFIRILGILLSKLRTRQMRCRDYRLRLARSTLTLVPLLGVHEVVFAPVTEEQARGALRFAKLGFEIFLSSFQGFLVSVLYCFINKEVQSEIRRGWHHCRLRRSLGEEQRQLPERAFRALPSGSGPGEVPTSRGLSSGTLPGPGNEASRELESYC
Put plainly: GIP receptor assay, method A (CRE-luciferase reporter, BHK cells). Format: cell-based. The method, boiled down: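 Receptor activation was read as luciferase luminescence in hGIPR-expressing BHK CRE-Luc cells after 3 h compound exposure at 37 °C. Titrations (10-fold, 7 points, duplicate) ran in buffer containing 1% ovalbumin, with 1% HSA final or without; EC50 in pM fitted by four-parameter logistic model, Hill slope shared.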

In data set [3] the target is T3, human GLP-1 receptor (hGLP-1R) (Homo sapiens, UniProt P43220).
T3 construct: expressed in transfected cells
T3 sequence (P43220 24-463): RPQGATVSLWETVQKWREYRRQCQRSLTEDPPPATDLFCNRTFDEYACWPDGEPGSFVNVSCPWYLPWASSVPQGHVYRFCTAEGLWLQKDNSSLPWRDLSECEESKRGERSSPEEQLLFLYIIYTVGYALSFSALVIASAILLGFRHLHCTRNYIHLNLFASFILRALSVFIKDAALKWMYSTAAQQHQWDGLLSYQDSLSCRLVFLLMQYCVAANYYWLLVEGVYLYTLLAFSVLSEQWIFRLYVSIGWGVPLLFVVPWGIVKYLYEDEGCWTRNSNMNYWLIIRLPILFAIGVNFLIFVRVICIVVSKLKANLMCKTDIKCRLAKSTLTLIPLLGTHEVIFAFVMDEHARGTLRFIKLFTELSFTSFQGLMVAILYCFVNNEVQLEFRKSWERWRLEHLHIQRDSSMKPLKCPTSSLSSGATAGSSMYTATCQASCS
The data set can be described thus: GLP-1 receptor assay, method A (CRE-luciferase reporter, BHK cells). The data set is classed as cell-based. The gist of the method:
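hGLP-1R BHK CRE-Luc cells, thawed, in DMEM (no phenol red)/10 mM HEPES/1% ovalbumin/0.1% Pluronic F-68 ± 1% (w/v) HSA; 3 h, 37° C, 5% CO2; steadylite Plus, 30 min RT, luminescence.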

Data set [4] is described as follows: Chemical stability assessment in formulation (UPLC-UV-MS purity loss at 37° C.). Format: physicochemical. The following applies: 8 mM phosphate buffer pH 7.4, 1 mg/mL, 2 weeks. The gist of the method:
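Degradation tracked by UPLC-UV-MS (formic acid/acetonitrile gradient) on samples drawn over 2 weeks at 37° C. Solutions were made at a 1 mg/mL target in 8 mM phosphate, pH 7.4, kept in sealed vials and frozen after sampling.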

Where [5] appears, read: hAMYR3 Potency, 1% HSA, EC50, method A, in the presence of 1% HSA.
[6] abbreviates: method A, absence of HSA, read-out: hAMYR3 Potency, no HSA, EC50.
Setting [7] is: hGIPR Potency, 1% HSA, EC50, method A, in the presence of 1% HSA.
[8] abbreviates: method A, absence of HSA, read-out: hGIPR Potency, no HSA, EC50.
The mark [9] stands for this setting: hGLP-1R Potency, 1% HSA, EC50, method A, in the presence of 1% HSA.
The mark [10] stands for this setting: method A, absence of HSA, read-out: hGLP-1R Potency, no HSA, EC50.

Read-outs that look alike come from different tables or passages of the source. Numbered stars: 1 amine (or outer) side, 2 acyl side, 3 side chain; on linkers, the order of the positions; unused ones are H or OH. Square brackets hold non-standard residues; d marks the D form. Side chains are listed from the residue outwards. * marks the point of attachment. C18 diacid = O=C(O)CCCCCCCCCCCCCCCCC(=O)*; γGlu = O=C(O)[C@H](CCC(=O)[*:2])N[*:1]; AEEA = NCCOCCOCC(=O)O; Aib = CC(C)(N)C(=O)O

T1 sequence (P30988 25-474): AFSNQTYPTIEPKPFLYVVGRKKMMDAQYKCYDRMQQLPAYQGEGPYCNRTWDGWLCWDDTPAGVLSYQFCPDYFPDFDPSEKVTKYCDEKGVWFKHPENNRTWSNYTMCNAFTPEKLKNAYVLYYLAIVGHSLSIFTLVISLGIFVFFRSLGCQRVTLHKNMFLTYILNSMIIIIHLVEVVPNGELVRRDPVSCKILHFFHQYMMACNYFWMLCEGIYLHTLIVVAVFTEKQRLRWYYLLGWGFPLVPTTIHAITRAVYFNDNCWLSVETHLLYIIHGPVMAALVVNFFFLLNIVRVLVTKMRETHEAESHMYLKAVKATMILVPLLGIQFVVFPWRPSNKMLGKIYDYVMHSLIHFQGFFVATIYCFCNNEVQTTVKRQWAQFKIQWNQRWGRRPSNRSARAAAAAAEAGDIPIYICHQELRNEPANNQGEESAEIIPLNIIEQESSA
T1 sequence (O60896 24-148): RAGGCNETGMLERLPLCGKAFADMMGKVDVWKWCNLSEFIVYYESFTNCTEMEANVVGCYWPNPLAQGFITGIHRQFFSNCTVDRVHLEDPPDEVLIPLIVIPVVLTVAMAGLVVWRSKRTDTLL

For the substance “H[Aib]HGTFTSDYSILLEEQAAREFIEWLLAGGPSSGEASHLSTAQTQRLSAELHRLK([AEEA-AEEA-γGlu-C18 diacid])TLPRTETGSGSP-NH2 [Compound 83]”, the EC50 is 45.7 pM in data set [1] (setting [5]); 2.9 pM in data set [1] (setting [6]); 13.6 pM in data set [2] (setting [7]); 2.92 pM in data set [2] (setting [8]); 9.89 pM in data set [3] (setting [9]); 2.3 pM in data set [3] (setting [10]). In addition, in data set [4], the “Purity loss per week at 37° C.” value is 2.3%.
With “H[Aib]HGTFTSDYSILLEEQAAREFIEWLLAGGPSSGEASHLSTAQTQRLSAELHRLATLPK([AEEA-AEEA-γGlu-C18 diacid])TETGSGSP-NH2 [Compound 84]”, the EC50 in data set [1] (setting [5]) worked out at 175 pM; in data set [1] (setting [6]), 4.41 pM; in data set [2] (setting [7]) it was 11.6 pM; in data set [2] (setting [8]) it was 3 pM; in data set [3] (setting [9]), 25.9 pM; in data set [3] (setting [10]) it was 3.31 pM. Further, the “Purity loss per week at 37° C.” value in data set [4] was found to be 2.9%.
Consider “H[Aib]HGTFTSDYSILLEEQAAREFIEWLLAGGPSSGAGQAPGQAPGASHLSTAQTQRLSAELHRLATLPK([AEEA-AEEA-γGlu-C18 diacid])TETGSGSP-NH2 [Compound 92]”, for which the EC50 in data set [1] (setting [5]) is 75.1 pM; in data set [1] (setting [6]) it was 2.64 pM; in data set [2] (setting [7]), 8.53 pM; in data set [2] (setting [8]), 3.12 pM; in data set [3] (setting [9]), 13.4 pM; in data set [3] (setting [10]) it was 2.55 pM. In addition, the “Purity loss per week at 37° C.” value in data set [4] was determined as 2.8%.
Regarding “H[Aib]HGTFTSDYSILLEEQAAREFIEWLLAGGPSK([AEEA-AEEA-γGlu-C18 diacid])GEASQLSTAALGRLSAELHRLATLPRTETGSGSP-NH2 [Compound 73]”, the EC50 turned out to be 61.5 pM in data set [1] (setting [5]); 1.99 pM in data set [1] (setting [6]); 96.5 pM in data set [2] (setting [7]); 4.98 pM in data set [2] (setting [8]); 54.1 pM in data set [3] (setting [9]); 4.55 pM in data set [3] (setting [10]). The “Purity loss per week at 37° C.” value in data set [4] worked out at 2.8%.
Consider “H[Aib]HGTFTSDYSILLEEQAAREFIEWLLAGGPSK([AEEA-AEEA-γGlu-C18 diacid])GAGQAPGQAPGASHLSTAQTQRLSAELHELATLPRTETGSGSP-NH2 [Compound 47]”, for which the EC50 stood at 55.8 pM in data set [1] (setting [5]); 2.57 pM in data set [1] (setting [6]); 162 pM in data set [2] (setting [7]); 2.02 pM in data set [2] (setting [8]); 67.5 pM in data set [3] (setting [9]); 3.15 pM in data set [3] (setting [10]). In addition, the “Purity loss per week at 37° C.” value in data set [4] worked out at 2.6%.
As for “H[Aib]HGTFTSDYSILLEEQAAREFIEWLLAGGPSK([AEEA-AEEA-γGlu-C18 diacid])GEASQLSTAALGRLSAELHGLATLPRTETGSGSP-NH2 [Compound 65]”, the EC50 was determined as 127 pM in data set [1] (setting [5]); 2.84 pM in data set [1] (setting [6]); 118 pM in data set [2] (setting [7]); 1.89 pM in data set [2] (setting [8]); 100 pM in data set [3] (setting [9]); 4.86 pM in data set [3] (setting [10]). Besides, the “Purity loss per week at 37° C.” value in data set [4] is recorded as 2.1%.
“H[Aib]HGTFTSDYSILLEEQAAREFIEWLLAGGPSSGEASHLSTAQTQRLSAELHK([AEEA-AEEA-γGlu-C18 diacid])LATLPRTETGSGAP-NH2 [Compound 85]”: the EC50 in data set [1] (setting [5]) turned out to be 250 pM; in data set [1] (setting [6]), 4.4 pM; in data set [2] (setting [7]), 14.6 pM; in data set [2] (setting [8]), 2.71 pM; in data set [3] (setting [9]), 30.3 pM; in data set [3] (setting [10]), 3.52 pM. Moreover, the “Purity loss per week at 37° C.” value in data set [4] is listed as 2.0%.
